{
  "source": "patent US20030083227A1",
  "about": "“Novel combination therapy to treat glaucoma” (priority 1999, published 2003)",
  "key": {"mouse IOP [1]": {"test_system": "mouse IOP", "conditions": "cited from earlier work"}, "mouse IOP [2]": {"test_system": "mouse IOP", "assay": "Mouse IOP measured with the Servo-Null Micropipette System (SNMS)", "format": "in vivo", "conditions": "for ΔIOP (after 1st drug): vs previous period; for effect on IOP: alone; for ΔIOP after base (1st drug): sequential study; for minimally effective droplet concentration: lowering of mouse IOP", "method": "Black Swiss outbred mice of mixed sex, 7 to 9 weeks old and approximately 30 g in weight, were obtained from Taconic, Inc. (Germantown, N.Y.). Animals were housed in accordance with National Institutes of Health recommendations, maintained under a 12-hour light-dark illumination cycle, and allowed unrestricted access to food and water. IOP measurements were performed at the same time of day (2-6 PM) to minimize diurnal effects on IOP. All procedures conformed to the ARVO Statement for the Use of Animals in Ophthalmic and Vision Research.\nBefore all IOP measurements, mice received general anesthesia in the form of intraperitoneal ketamine (250 mg/kg), supplemented by topical proparacaine HCl (0.5%; Allergan, Hormigueros, Puerto Rico). After reaching a stable plane of anesthesia confirmed by absent response to foot pinch, the mice were secured in a surgical stereotaxic device (David Kopf Instruments, Tujunga, Calif.), with the head positioned to avoid any pressure on the animal that could affect IOP. A heating pad at 37° C. (Delta Phase Isothermal Pad, Braintree Scientific, Braintree, Mass.) maintained body temperature. Topical proparacaine supplemented general anesthesia, and corneal dehydration was prevented by topical normal saline (309 mOsm), as necessary. The ground electrode was placed on the conjunctiva of the same or the contralateral eye, carefully avoiding any pressure on the eye.\nIOP was measured with the Servo-Null Micropipette System (SNMS), an electrophysiologic, nonmanometric method of measuring pressure, previously adapted and validated for measuring IOP in the mouse (Avila et al., 2001A). The exploring, 5-μm micropipette was filled with 3 M KCl solution to ensure that the resistance of the fluid within the tip was much lower than that of the extracellular fluid. The resistance to electrical flow through the micropipette was continuously monitored and was dominated by the electrical resistance at the tip.\nAfter entry of the tip into the anterior chamber, the step change in hydrostatic pressure forced aqueous humor into the micropipette, displacing the low-resistance 3-M KCl filling solution from the tip back toward the shank. The resultant increase in electrical resistance generated a signal to a vacuum-pressure pump that produced an equal counter-pressure that maintained the position of the aqueous humor-KCl interface at the tip of the micropipette, and thus sustains the original electrical resistance. This counter-pressure equaled the hydrostatic pressure outside the micropipette tip, in this instance the IOP. […] Before every measurement, the system was calibrated externally against a mercury manometer in the range from 0 to 50 mm Hg at 5- to 10-mm Hg intervals.\nThe micropipettes were fabricated from borosilicate glass (1.5 mm outer diameter, 0.84 mm inner diameter, WPI) with a puller (Sutter Instruments, San Rafael, Calif.). The tips were beveled to an outer diameter of 5 μm and a 45° angle with a micropipette beveler (Sutter).\nUsing the SNMS as described above, the micropipette tip was next placed in the drop of proparacaine on the cornea overlying the pupil of the subject, and the output reading from the SNMS was adjusted to zero. The micropipette was then advanced across the cornea (at 20-30° to the optical axis) into the anterior chamber by a cell-penetration positioning system (model LSS 21200; Burleigh Instruments, Inc., Fishers, N.Y.) and a piezoelectric step driver (model PZ100; Burleigh). IOP was monitored after positioning the micropipette tip in the aqueous humor. The baseline IOP in the present study was 14.2±0.4 mm Hg (n=113). In measuring drug-induced changes in IOP, each animal served as its own series control. All pressures after drug application were compared with those just before the drug was added.\nTo determine an individual IOP reading, the mean±SEM was calculated during a 3- to 5-minute recording period. Numbers of experiments or eyes are indicated by the symbol n. […]"}, "PE cells [3]": {"test_system": "PE cells", "assay": "Potency of Na+/H+ antiport inhibitors applied to PE cells", "format": "cell-based", "conditions": "amiloride : EIPA", "method": "Carbonic anhydrase inhibition reduces the rate of production of H^+ and HCO3^−, which in turn must slow the rate of delivery of H^+ and HCO3^− to all cell sites, including the antiports. […] To reach a 10-mM concentration, it was necessary to solubilize the amiloride in 30% DMSO. […] Thus, at a concentration 10 times higher than EIPA's minimal effective concentration, amiloride had no effect, consistent with the known ratio of the potency of these inhibitors (3.9:0.07 μM, or ˜56) when applied to PE cells."}, "NHE-1": {"test_system": "NHE-1", "conditions": "cited from earlier work"}, "PE cells [4]": {"test_system": "PE cells", "conditions": "applied to PE cells; cited from earlier work"}, "PE cells [5]": {"test_system": "PE cells", "assay": "Regulatory volume increase (post-RVD RVI) of PE cells, volumetric measurements", "format": "cell-based, bovine", "method": "Volumetric measurements were also performed to confirm that these antiports could function in parallel to transfer solution from the extracellular space into the cells.\nSince paired Na^+/H^+ and Cl^−/HCO3^− exchangers were known to contribute to the regulatory volume increase (RVI) in many other cells (Hoffmann, Curr Top Membr Transp 30:125-180 (1987)), the regulatory volume increase in the PE cells was examined. However, the secondary RVI was not observed in the PE cells at room temperature. Consequently, the volumetric experiments were conducted at 34-37° C.\nThe precise time course of the baseline RVI was variable, so that the data of some experiments were better fit to an exponential expression, and others to a linear expression (filled circles, FIG. 2C). […] Secondary RVI was inhibited either by blocking the Na^+/H^+ antiport with 10 μM dimethylamiloride, or by omitting CO2/HCO3^− from the external solution.\nInhibitors were added at the same time that isotonicity was restored (t=24 min)."}, "[6]": {"conditions": "single drug, topical 10-μL droplet, 1 mM"}, "[7]": {"conditions": "single drug, topical 10-μL droplet, 100 μM"}, "[8]": {"conditions": "1st drug 1 mM topical, vs baseline"}, "[9]": {"conditions": "single drug, topical 10-μL droplet, 3 mM"}},
  "data": [
    {"smiles": "CC(=O)Nc1nnc(S(N)(=O)=O)s1", "note": "[acetazolamide]", "values": [
      {"measurement": "lowering of mouse IOP", "setting": "mouse IOP [1]; intraperitoneal", "result": "11.9±1.3", "unit": "mm Hg"}
    ]},
    {"smiles": "N=C(N)NC(=O)c1nc(Cl)c(N)nc1N", "note": "[amiloride]", "values": [
      {"measurement": "ΔIOP", "setting": "mouse IOP [2]; 10 mM in 30% DMSO, after pretreatment with vehicle containing 30% DMSO, n=4", "result": "1.0±0.7", "unit": "mm Hg"},
      {"measurement": "ΔIOP", "setting": "mouse IOP [2]; [6]", "result": "no significant effect on mouse IOP"},
      {"measurement": "ratio of the potency of these inhibitors", "setting": "PE cells [3]", "result": "~56"},
      {"measurement": "potency at NHE-1 antiports lower than the amiloride analogues DMA and EIPA", "setting": "NHE-1; Counillon et al., 2000", "result": "1 to 2 orders of magnitude"},
      {"measurement": "potency", "setting": "PE cells [4]", "result": 3.9, "unit": "µM"}
    ]},
    {"smiles": "CCCCNc1cc(C(=O)O)cc(S(N)(=O)=O)c1Oc1ccccc1", "note": "[Bumetanide]", "values": [
      {"measurement": "change in IOP", "setting": "mouse IOP [2]; 10 mM alone, 4 mice", "result": "−1.0±1.1", "unit": "mm Hg"},
      {"measurement": "reduction of IOP", "setting": "mouse IOP [2]; 10 mM bumetanide after topical ethylisopropyl-amiloride, N=6", "result": "4.0±0.6", "unit": "mm Hg"},
      {"measurement": "ΔIOP (after 1st drug)", "setting": "mouse IOP [2]; 2nd drug 10 mM (36.4 μg) after 1 mM BIIB", "result": "−3.9 ± 0.9", "unit": "mm Hg"},
      {"measurement": "ΔIOP (after 1st drug)", "setting": "mouse IOP [2]; 2nd drug 10 mM (36.4 μg) after 1 mM DMA", "result": "−3.8 ± 0.7", "unit": "mm Hg"},
      {"measurement": "ΔIOP (after 1st drug)", "setting": "mouse IOP [2]; 2nd drug 10 mM (36.4 μg) after 1 mM EIPA", "result": "−4.0 ± 0.6", "unit": "mm Hg"},
      {"measurement": "ΔIOP (after 1st drug)", "setting": "mouse IOP [2]; 2nd drug 10 mM (36.4 μg) after 55.5 mM dorzolamide", "result": "−3.9 ± 1.0", "unit": "mm Hg"},
      {"measurement": "effect on IOP", "setting": "mouse IOP [2]; N=8, 10 uM-10 mM concentrations in topical drops", "result": "had no significant effect on IOP"},
      {"measurement": "effect on IOP", "setting": "mouse IOP [2]; droplet concentrations of 0.1 to 10 mM (364 ng to 36.4 μg)", "result": "had no significant effect on IOP"},
      {"measurement": "ΔIOP", "setting": "mouse IOP [2]; [7]", "result": "−0.8 ± 0.7", "unit": "mm Hg"},
      {"measurement": "ΔIOP", "setting": "mouse IOP [2]; [6]", "result": "−0.7 ± 1.6", "unit": "mm Hg"},
      {"measurement": "ΔIOP", "setting": "mouse IOP [2]; single drug, topical 10-μL droplet, 10 mM", "result": "−1.2 ± 0.6", "unit": "mm Hg"},
      {"measurement": "effect on RVI", "setting": "PE cells [5]; 10 μM, added when isotonicity restored, N=9", "result": "did not inhibit the RVI"},
      {"measurement": "effect on RVI", "setting": "PE cells [5]; alone, in the nominal absence of CO2/HCO3−, P<0.01", "result": "substantially inhibited the RVI"}
    ]},
    {"smiles": "CCN(c1nc(N)c(C(=O)NC(=N)N)nc1Cl)C(C)C", "note": "[EIPA, ethylisopropylamiloride]", "values": [
      {"measurement": "ΔIOP after base (1st drug)", "setting": "mouse IOP [2]; [8]", "result": "−2.4 ± 0.6", "unit": "mm Hg"},
      {"measurement": "ΔIOP", "setting": "mouse IOP [2]; [7]", "result": "+0.8 ± 0.2 mm Hg"},
      {"measurement": "ΔIOP", "setting": "mouse IOP [2]; [6]", "result": "−2.6 ± 0.5", "unit": "mm Hg"},
      {"measurement": "ΔIOP", "setting": "mouse IOP [2]; [9]", "result": "−4.1 ± 1.0", "unit": "mm Hg"},
      {"measurement": "lowering of IOP", "setting": "mouse IOP [2]; single drug, topical, 3 mM", "result": "4.1±1.0", "unit": "mm Hg"},
      {"measurement": "minimally effective droplet concentration", "setting": "mouse IOP [2]; topical", "result": 1, "unit": "mM"},
      {"measurement": "IC50", "setting": "NHE-1; Scholz et al. 1995", "result": 50, "unit": "nM"},
      {"measurement": "potency", "setting": "PE cells [4]", "result": 0.07, "unit": "µM"}
    ]},
    {"smiles": "Nc1ncnc2c1ncn2[C@@H]1O[C@H](CO)[C@@H](O)[C@H]1O", "note": "[adenosine]", "values": [
      {"measurement": "effect on IOP in the contralateral eye", "setting": "mouse IOP [1]; 100 μM, unilateral topical application", "result": "does not alter"}
    ]},
    {"smiles": "O=S(=O)(O)c1cc(N=C=S)ccc1C=Cc1ccc(N=C=S)cc1S(=O)(=O)O", "note": "[DIDS, 4,4′-diisothiocyanatostilbene-2,2′-disulfonic acid]", "values": [
      {"measurement": "effect on RVI", "setting": "PE cells [5]; 500 μM, added when isotonicity restored, N=3", "result": "did not inhibit the RVI"}
    ]},
    {"smiles": "CCN[C@H]1C[C@H](C)S(=O)(=O)c2sc(S(N)(=O)=O)cc21", "note": "[Dorzolamide]", "values": [
      {"measurement": "ΔIOP after base (1st drug)", "setting": "mouse IOP [2]; 1st drug 55.4 mM (200 μg), series followed by BIIB, n=7", "result": "−3.5 ± 0.9", "unit": "mm Hg"},
      {"measurement": "ΔIOP after base (1st drug)", "setting": "mouse IOP [2]; 1st drug 55.5 mM (200 μg), series followed by bumetanide, n=4", "result": "−2.0 ± 0.4", "unit": "mm Hg"},
      {"measurement": "ΔIOP", "setting": "mouse IOP [2]; single drug, topical 10-μL droplet, 55.4 mM (200 μg)", "result": "−2.9 ± 0.6", "unit": "mm Hg"},
      {"measurement": "ΔIOP", "setting": "mouse IOP [2]; single drug, topical 10-μL droplet, 55.4 mM (200 μg), listed as dorzolamide", "result": "reduces IOP"}
    ]},
    {"smiles": "CN(C)c1nc(N)c(C(=O)N=C(N)N)nc1Cl", "note": "[DMA, dimethylamiloride]", "values": [
      {"measurement": "ΔIOP after base (1st drug)", "setting": "mouse IOP [2]; [8]", "result": "−4.0 ± 0.8", "unit": "mm Hg"},
      {"measurement": "ΔIOP", "setting": "mouse IOP [2]; [7]", "result": "+0.9 ± 0.9 mm Hg"},
      {"measurement": "ΔIOP", "setting": "mouse IOP [2]; [9]", "result": "−5.0 ± 0.7", "unit": "mm Hg"},
      {"measurement": "reduction of IOP of the treated eye", "setting": "mouse IOP [2]; single drug, topical, 1 mM", "result": "3.8±0.5", "unit": "mm Hg"},
      {"measurement": "lowering of IOP", "setting": "mouse IOP [2]; single drug, topical, 3 mM", "result": "5.0±0.7", "unit": "mm Hg"},
      {"measurement": "minimally effective droplet concentration", "setting": "mouse IOP [2]; topical", "result": 1, "unit": "mM"},
      {"measurement": "effect on secondary RVI", "setting": "PE cells [5]; 10 μM, 34-37° C.", "result": "inhibited"}
    ]}
  ]
}
